Assay results as given in patent publication US20090069363A1, “Therapeutic Agent for Constipation” (SHIONOGI & CO. LTD. A LEGAL ENTITY OF JAPAN, priority 2004, published 2009).

What was measured:
[1] = system: morphine-induced gastrointestinal transit inhibition; assay: Influence on morphine-induced inhibitory action against transport competence of gastrointestinal tract (carbon powder transfer rate); assay type: in vivo; details: mouse, 15 min before morphine 3 mg/kg s.c.
Procedure: After weighing each test compound, 0.5% methylcellulose (methylcellulose: Wako Pure Chemicals, water for injection: Otsuka Pharmaceutical Factory) was added, and the obtained mixture was well stirred to prepare solutions containing the test compound at final concentrations of 3 mg/mL, 1 mg/mL and 0.3 mg/mL, respectively.
After weighing each test compound, 5% xylitol (Kylit injection (registered trademark), Otsuka Pharmaceutical Factory) was added and the mixture was well stirred to prepare solutions containing the test compound at a final concentration of 1 mg/mL. The solutions having concentrations of 0.3 mg/mL and 0.1 mg/mL, respectively, were prepared by diluting the solution having the concentration of 1 mg/mL.
Preparation Method: After weighing, physiological saline was added and the mixture was well stirred to prepare a solution having a concentration of 0.3 mg/mL.
• Crj:CD-1(ICR) mouse (SPF, male, 5-week old, body weight: 25.6-32.0 g (oral administration), 26.3-33.0 g (subcutaneous administration), Charles River Laboratories Japan)
• Control Group: 8 animals; Solvent-administered Group: 8 animals; Compound 1: 3, 10 and 30 mg/kg Groups: each 8 animals; Compound 2: 3, 10 and 30. mg/kg Groups: each 8 animals; Compound 3: 3, 10 and 30 mg/kg Groups: each 8 animals
• Control Group: 8 animals, Solvent-administered Group: 8 animals; Compound 1: 3, 10 and 30 mg/kg Groups: each 8 animals; Compound 2: 3, 10 and 30 mg/kg Groups: each 8 animals; Compound 3: 3, 10 and 30 mg/kg Groups: each 8 animals
• Administration volume: 10 mL/kg • Administration Method: Oral administration was carried out using a disposable syringe and an oral feeding tube.
Subcutaneous administration was carried out using a disposable syringe and a disposable injection needle. • Administration Frequency: single
Mice fasted overnight from the evening on one day before the test were used. Each test compound was administered, and 15 minutes later, morphine (3 mg/kg) was subcutaneously administered. 30 minutes after the administration of morphine, carbon powder (a suspension containing 5% of carbon powder suspended in 10% gum Arabic) was orally administered to each mouse in an amount of 0.1 mL, and the transfer rate (the distance which the carbon powder reached/the distance between the pylorus to cecum opening×100) was measured at 30 minutes after the administration of carbon powder. To the solvent-administered group, a solvent (methylcellulose or xylitol) was administered in place of the test substance solution. To the control group, none of the test substance, morphine and the solvent was administered and the transfer rate of the carbon powder was measured.

[2] = system: morphine-induced small intestine transit inhibition; assay: Influence on morphine-induced small intestine transit inhibition (Evans blue test meal); assay type: in vivo; details: rat
Procedure: Using aqueous 0.5 w/v % Evans blue solution, 2.5 w/v % carboxymethylcellulose salt solution was prepared and used as the test meal.
Male Wistar rats (Crj. Wistar, Charles River Laboratories Japan, 6 to 7-week old) were used. The rats were fasted from not less than 20 hours before the beginning of the test, and water was given ad libitum.
The compound (I-1) synthesized in Example 1 was dissolved in a solvent (DMAA/Solutol/5% meglumine=15/15/70) • DMAA: N,N-dimethylacetamide (Kanto Chemical) • Solutol: Solutol (registered trademark) HS15 (BASF) • Meglumine: D(−)-N-methylglucamin (Merck)
Morphine hydrochloric acid salt (Dainippon Pharma) was dissolved in normal saline.
All of the test substance, solvent and morphine were administered in avolume of 2 mL/kg.
Each test substance in an amount of 0.03, 0.1, 0.3, 1 or 3 mg/kg (Test Substance—administered Groups) or the above-described solvent (Solvent-administered Group) was subcutaneously administered, and 75 minutes later, 3 mg/kg of morphine was subcutaneously administered to all groups. […]
The test meal in an amount of 2 mL/rat was orally administered at 30 minutes after the administration of morphine. […] The distance between the cardia and the ileocecum (full length of small intestine), and the distance up to the tip of the pigment (moving distance of the pigment) were measured. […]

[3] = test substance 1 mg/kg subcutaneous
[4] = test substance 3 mg/kg subcutaneous
[5] = test substance 10 mg/kg subcutaneous

Cn1c2c(c3ccccc31)C[C@@]1(O)[C@H]3Cc4ccc(O)c5c4[C@@]1(CCN3CC1CC1)[C@H]2O5 [Compound 1]
Transfer Rate of Carbon Powder (%) [1, 3]: 41 ± 2 % | Transfer Rate of Carbon Powder (%) ([1]; test substance 3 mg/kg oral): 38 ± 2 % | Transfer Rate of Carbon Powder (%) [1, 4]: 43 ± 3 % | Transfer Rate of Carbon Powder (%) ([1]; test substance 10 mg/kg oral): 35 ± 2 % | Transfer Rate of Carbon Powder (%) [1, 5]: 46 ± 3 % | Transfer Rate of Carbon Powder (%) ([1]; test substance 30 mg/kg oral): 40 ± 2 %

Cc1ccc(/C=C2\C[C@@]3(O)[C@H]4Cc5ccc(O)c6c5[C@@]3(CCN4CC3CC3)[C@@H](O6)C2=O)cc1 [Compound 3]
Transfer Rate of Carbon Powder (%) [1, 3]: 32 ± 2% | Transfer Rate of Carbon Powder (%) [1, 4]: 43 ± 1 % | Transfer Rate of Carbon Powder (%) [1, 5]: 53 ± 3 %

CCOC(=O)c1ccc2c3c([nH]c2c1)[C@@H]1Oc2c(O)ccc4c2[C@@]12CCN(CC1CC1)[C@H](C4)[C@]2(O)C3 [Compound 2]
Transfer Rate of Carbon Powder (%) [1, 3]: 35 ± 3% | Transfer Rate of Carbon Powder (%) ([1]; test substance 3 mg/kg oral): 43 ± 2 % | Transfer Rate of Carbon Powder (%) [1, 4]: 53 ± 3 % | Transfer Rate of Carbon Powder (%) ([1]; test substance 10 mg/kg oral): 38 ± 2 % | Transfer Rate of Carbon Powder (%) [1, 5]: 55 ± 2 % | Transfer Rate of Carbon Powder (%) ([1]; test substance 30 mg/kg oral): 52 ± 3 %

O=C(O)c1ccc2c3c([nH]c2c1)[C@@H]1Oc2c(O)ccc4c2[C@@]12CCN(CC1CC1)[C@H](C4)[C@]2(O)C3 [Compound I-1, 17-cyclopropylmethyl-6,7-didehydro-4,5α-epoxy-3,14β-dihydroxy-6′-carboxy-6,7-2′,3′-indolomorphinan]
ED50 against morphine-induced small intestine transit inhibition ([2]; test substance s.c. 75 min before morphine 3 mg/kg s.c., calculated from % MPE): 0.29 mg/kg | antagonistic action against morphine-induced small intestine transit inhibition ([2]; test substance s.c., morphine 3 mg/kg s.c.): exhibited antagonistic action
